IC50, EC50 and CC50 data for 24 compounds are collected here from patent publication US20250084091A1, “INHIBITORS OF SARS-COV-2” (The Texas A&M University System, priority 2021, published 2025).

In data set [1] the target is SARS-CoV-2 main protease (Mpro) (Severe acute respiratory syndrome coronavirus 2, UniProt P0DTD1). Briefly: biochemical.
Data set [2] has as its system SARS-CoV-2 (strain USA-WA1/2020). Briefly: microbe, parasite or virus in culture. The data set is classed as cell-based.
The subject of a further data set is HeLa-ACE2 cells. Briefly: cells. The note with it: Table 2, total cell count in infected plates. The data set is classed as cell-based.
Data set [3] in a line: Uninfected host cell cytotoxicity counter screen. The data set is classed as cell-based. The note with it: human. The procedure: Uninfected host cell cytotoxicity counter screen: HeLa-ACE2 cells were maintained as described for the infection assay and seeded in the assay-ready plates at 400 cells/well. Plates were incubated for 24 hours at 37° C. 5% CO2. To assess cell viability, the Image-iT DEAD green reagent was used according to manufacturer instructions. Cells were fixed with 4% paraformaldehyde, and counterstained with DAPI. Fixed cells are imaged as described above.
Viral replication data analysis: Data from the primary screen and the host cell cytotoxicity screen are normalized to neutral (DMSO) […] inhibitor controls (2.5 μM Remdesivir for antiviral effect and 10 μM puromycin for infected host cell toxicity). For the uninfected host cell cytotoxicity counter-screen 40 μM puromycin is used as the positive control. Concentration response experiments will be tested in triplicate.
In general terms: A counterscreen serves to expose hits that act by an unwanted route or on another target.

[4] abbreviates: Severe acute respiratory syndrome coronavirus 2, Table 2, SARS-CoV-2 infected HeLa-ACE2 cells, read-out: CoV-2 HeLa EC50.
The mark [5] stands for this setting: Severe acute respiratory syndrome coronavirus 2, HeLa-ACE2, read-out: CoV-2 HeLa EC50, Table 2, SARS-CoV-2 infected HeLa-ACE2 cells.
Where [6] appears, read: Table 2, uninfected cells, 24 hours, read-out: Uninfected HeLa-ACE2 CC50.

One may read the IC50 as the midpoint of a concentration-inhibition curve. As usually defined, the EC50 is the concentration at which the effect is half-maximal. By CC50 is commonly meant the concentration that lowers cell viability or growth by half.

Read-outs that look alike come from different tables or passages of the source.

For the compound `O=C(c1cncc(Cl)c1)N1CCN(C(c2ccccc2)c2ccsc2)CC1` (centres unmarked) [MKP-1221, 1-(5-chloropyridine-3-carbonyl)-4-[phenyl(thiophen-3-yl)methyl]piperazine], the IC50 in data set [1] (Table 2, read-out: Enzyme IC50) stood at 0.33 µM. Besides, the EC50 is 0.831 µM in data set [2] (setting [4]) and 0.556 µM in the data set on HeLa-ACE2 cells. The CC50 at 24 h in data set [3] was over 39.8 µM.
The like results for `Cc1c(Br)cncc1C(=O)N1CCN(C2c3ccccc3CCc3ccccc32)CC1` [ZS-346, (5-bromo-4-methyl-3-pyridyl)-[4-(2-tricyclo[9.4.0.03,8]pentadeca-1(11),3(8),4,6,12,14-hexaenyl)piperazin-1-yl]methanone] were, in that order, 0.27 µM, 1.07 µM, 2.04 µM and over 39.8 µM.
For `O=C(c1cccnc1)N1CCC(=C(c2ccccc2)c2ccccc2)CC1` [NZ-772, 3-[4-(diphenylmethylidene)piperidine-1-carbonyl]pyridine] the same measures were 0.32 µM, 1.01 µM, over 9.61 µM and over 39.8 µM.
In the case of `O=C1CC(C(=O)N2CCN(C(c3ccccc3)c3ccccc3)CC2)c2ccccc2N1` (centres unmarked) [ZS-325, 4-(4-benzhydrylpiperazine-1-carbonyl)-3,4-dihydro-1H-quinolin-2-one], in data set [1] (Table 2, read-out: Enzyme IC50), the IC50 came to 1.51 µM. Also, the EC50 in data set [2] (setting [4]) is 5.68 µM; in the data set with HeLa-ACE2 cells, over 9.61 µM. Further, the CC50 at 24 h in data set [3] was over 39.8 µM.
The compound `O=C(c1cccnc1)N1C2CCC1CN(C(c1ccccc1)c1ccccc1)C2` [AA-597, (3-benzhydryl-3,8-diazabicyclo[3.2.1]octan-8-yl)(pyridin-3-yl)methanone] displayed an IC50 in data set [1] (Enzyme IC50, Table 2) of 3.9 µM. The EC50 (in data set [2] (setting [5]); with HeLa-ACE2 cells) was over 9.61 µM in each case. Also, the CC50 at 24 h in data set [3] (setting [6]) is over 39.8 µM.
As for `Cc1cncc(C(=O)N2CCN(C(c3ccccc3)c3ccc(S(C)(=O)=O)cc3)CC2)c1` (centres unmarked) [NZ-799, 1-[(4-methanesulfonylphenyl)(phenyl)methyl]-4-(5-methylpyridine-3-carbonyl)piperazine], in data set [1] (Table 2, read-out: Enzyme IC50), the IC50 stood at 1.24 µM. The EC50 in data set [2] (setting [4]) came to 2.54 µM; in the data set with HeLa-ACE2 cells, 6.58 µM. This compound also gave a CC50 at 24 h in data set [3] of over 39.8 µM.
As to `O=C(c1cncc(O)c1)N1CCN(C(c2ccccc2)c2ccccc2)CC1` [AA-599, (4-benzhydrylpiperazin-1-yl)(5-hydroxypyridin-3-yl)methanone], in data set [1] (Table 2, read-out: Enzyme IC50), the IC50 was found to be 1.6 µM. Also, the EC50 in data set [2] (setting [4]) was 6.03 µM; with HeLa-ACE2 cells, over 9.61 µM. The compound further returned a CC50 at 24 h in data set [3] of over 39.8 µM.
Take `Cc1cncc(C(=O)N2CCN(C(c3cccnc3)c3cccc(F)c3)CC2)c1` (centres unmarked) [MKP-1290, 1-[(3-fluorophenyl)(pyridin-3-yl)methyl]-4-(5-methylpyridine-3-carbonyl)piperazine]: the IC50 came to 0.096 µM in data set [1] (Table 2, read-out: Enzyme IC50) and 0.096 µM in data set [1] (Table 3, select example compounds against mpro, read-out: Enzyme IC50). Further, the EC50 in data set [2] (Severe acute respiratory syndrome coronavirus 2, HeLa, Table 3, read-out: CoV-2 HeLa EC50) was 0.105 µM; in data set [2] (setting [4]) it was 0.105 µM; in the data set on HeLa-ACE2 cells, 0.186 µM. Besides, in data set [3], the CC50 at 24 h was over 39.8 µM.
Regarding `O=C(c1cncc(Cl)c1)N1CCN(C(c2ccccc2)c2ccccc2)CC1` [AA-591, (4-benzhydrylpiperazin-1-yl)(5-chloropyridin-3-yl)methanone], in data set [1] (Table 2, read-out: Enzyme IC50), the IC50 turned out to be 0.3 µM. Also, the EC50 in data set [2] (setting [4]) is 0.89 µM; in the data set with HeLa-ACE2 cells, over 9.61 µM. The CC50 at 24 h in data set [3] is over 39.8 µM.
With `Cc1cc(C(=O)N2CCC(C(O)(c3ccccc3)c3ccccc3)CC2)c[n+]([O-])c1` [NZ-792, [4-[hydroxy(diphenyl)methyl]-1-piperidyl]-(5-methyl-1-oxo-3-pyridyl)methanone], in data set [1] (Table 2, read-out: Enzyme IC50), the IC50 is over 10 µM. In addition, the EC50 (in data set [2] (setting [5]); in the data set with HeLa-ACE2 cells) was over 9.61 µM in each case. The compound further had a CC50 at 24 h in data set [3] of over 39.8 µM.
In data set [1] (Enzyme IC50, Table 2), `Cc1cncc(C(=O)N2CC3CCC(C2)N3C(c2ccccc2)c2ccccc2)n1` [AA-658, (8-benzhydryl-3,8-diazabicyclo[3.2.1]octan-3-yl)-(6-methylpyrazin-2-yl)methanone] displayed an IC50 of 0.8 µM. The EC50 in data set [2] (setting [5]) is 1.95 µM; in the data set on HeLa-ACE2 cells, over 9.61 µM. Besides, the CC50 at 24 h in data set [3] (setting [6]) is over 39.8 µM.
`N#Cc1cncc(C(=O)N2CCN(C(c3ccccc3)c3ccccc3)CC2)c1` [MKP-1230, 5-[4-(diphenylmethyl)piperazine-1-carbonyl]pyridine-3-carbonitrile]: in data set [1] (Table 2, read-out: Enzyme IC50), the IC50 was found to be 1.3 µM. In addition, the EC50 in data set [2] (setting [4]) is 2.8 µM; with HeLa-ACE2 cells, over 9.61 µM. Moreover, the CC50 at 24 h in data set [3] was over 39.8 µM.
Consider `CC(=O)Nc1cccc(C(c2ccccc2)N2C3CCC2CN(C(=O)c2cncc(C)c2)C3)c1` (centres unmarked) [AA-627, N-(3-((3-(5-methylnicotinoyl)-3,8-diazabicyclo[3.2.1]octan-8-yl)(phenyl)methyl)phenyl)acetamide], for which, in data set [1] (Enzyme IC50, Table 2), half-maximal inhibition (IC50) required 0.048 µM. For the same compound, the EC50 in data set [2] (setting [5]) is 3 µM; in the data set with HeLa-ACE2 cells, over 9.61 µM. For the same compound, the CC50 at 24 h in data set [3] (setting [6]) was over 39.8 µM.
Turning to `O=C(c1cnccn1)N1CCN(C(c2ccccc2)c2ccccc2)CC1` [AA-579, (4-benzhydrylpiperazin-1-yl)(pyrazin-2-yl)methanone], in data set [1] (Table 2, read-out: Enzyme IC50), the IC50 stood at 7.7 µM. For the same compound, the EC50 (in data set [2] (setting [5]); in the data set on HeLa-ACE2 cells) was over 9.61 µM in each case. In addition, in data set [3], the CC50 at 24 h was over 39.8 µM.
Turning to `Cc1cncc(C(=O)N2CCN(C(c3ccccc3)c3ccccc3S(C)(=O)=O)CC2)c1` (centres unmarked) [NZ-807, (5-methyl-3-pyridyl)-[4-[(2-methylsulfonylphenyl)-phenyl-methyl]piperazin-1-yl]methanone], the IC50 in data set [1] (Table 2, read-out: Enzyme IC50) stood at 0.61 µM. In addition, the EC50 in data set [2] (setting [4]) was 1.99 µM; in the data set on HeLa-ACE2 cells, over 9.61 µM. For the same compound, in data set [3], the CC50 at 24 h is over 39.8 µM.
On to `O=C(c1cccnc1)N1CCN(C(c2ccccc2)c2cccnc2)CC1` (centres unmarked) [MKP-1183, 1-[phenyl(pyridin-3-yl)methyl]-4-(pyridine-3-carbonyl)piperazine], for which, in data set [1] (Table 2, read-out: Enzyme IC50), the IC50 stood at 1.7 µM. For the same compound, the EC50 in data set [2] (setting [4]) is 4.34 µM; with HeLa-ACE2 cells, over 9.61 µM. In addition, the CC50 at 24 h in data set [3] was over 39.8 µM.
Turning to `O=C(c1cncc2nc[nH]c12)N1CCN(C2c3ccccc3CS(=O)(=O)c3ccccc32)CC1` (centres unmarked) [NZ-810, [4-(5,5-dioxo-6,11-dihydrobenzo[c][1]benzothiepin-11-yl)piperazin-1-yl]-(1H-imidazo[4,5-c]pyridin-7-yl)methanone], the half-maximal inhibitory concentration (IC50) in data set [1] (Table 2, read-out: Enzyme IC50) was 0.075 µM. The EC50 worked out at 0.482 µM in data set [2] (setting [4]) and 0.434 µM in the data set with HeLa-ACE2 cells. The same compound displayed a CC50 at 24 h in data set [3] of over 39.8 µM.
With `O=C(c1cncc(F)c1)N1CCN(C(c2ccccc2)c2ccccc2)CC1` [AA-592, (4-benzhydrylpiperazin-1-yl)(5-fluoropyridin-3-yl)methanone], the IC50 in data set [1] (Table 2, read-out: Enzyme IC50) came out at 0.97 µM. Also, the concentration for a half-maximal effect (EC50) was 2.72 µM in data set [2] (setting [4]) and over 9.61 µM with HeLa-ACE2 cells. The CC50 at 24 h in data set [3] was over 39.8 µM.
For `Cc1cncc(C(=O)N2CCN(C(c3ccccc3)c3cc(F)cc(F)c3)CC2)c1` (centres unmarked) [MKP-1280, 1-[(3,5-difluorophenyl)(phenyl)methyl]-4-(5-methylpyridine-3-carbonyl)piperazine] the same measures were 0.061 µM, 0.158 µM, 0.261 µM and over 39.8 µM.
In the case of `Cc1cncc(C(=O)N2CCN(C(c3ccccc3)c3ccccc3)CC2=O)c1` [AA-637, 4-benzhydryl-1-(5-methylnicotinoyl)piperazin-2-one], the IC50 in data set [1] (Table 2, read-out: Enzyme IC50) was found to be 0.09 µM. Moreover, the half-maximal effective concentration (EC50) (in data set [2] (setting [5]); in the data set with HeLa-ACE2 cells) was over 9.61 µM throughout. In data set [3], this compound displayed a CC50 at 24 h of over 39.8 µM.
For the compound `CNC(=O)c1cccc(C(c2ccccc2)N2C3CCC2CN(C(=O)c2cncc(C)c2)C3)c1` (centres unmarked) [AA-630, N-methyl-3-((3-(5-methylnicotinoyl)-3,8-diazabicyclo[3.2.1]octan-8-yl)(phenyl)methyl)benzamide], in data set [1] (Enzyme IC50, Table 2), the IC50 was 1.37 µM. Moreover, the EC50 in data set [2] (setting [5]) came out at 7.73 µM; in the data set on HeLa-ACE2 cells it was 8.56 µM. Also, the CC50 at 24 h in data set [3] (setting [6]) is over 39.8 µM.
As to `O=C(c1cncc(Br)c1)N1CCN(C(c2ccccc2)c2ccsc2)CC1` (centres unmarked) [MKP-1220, 1-(5-bromopyridine-3-carbonyl)-4-[phenyl(thiophen-3-yl)methyl]piperazine], the IC50 in data set [1] (Table 2, read-out: Enzyme IC50) came to 0.25 µM. Also, the EC50 in data set [2] (setting [4]) is 0.884 µM; with HeLa-ACE2 cells, 2.64 µM. The compound further gave a CC50 at 24 h in data set [3] of over 39.8 µM.
Take `O=S1(=O)Cc2ccccc2C(N2CCC(C(O)c3cccnc3)CC2)c2ccccc21` (centres unmarked) [NZ-806, [1-(5,5-dioxo-6,11-dihydrobenzo[c][1]benzothiepin-11-yl)-4-piperidyl]-(3-pyridyl)methanol]: the IC50 in data set [1] (Table 2, read-out: Enzyme IC50) amounted to 18.9 µM. The EC50 (in data set [2] (setting [5]); with HeLa-ACE2 cells) was over 9.61 µM throughout. Also, in data set [3], the CC50 at 24 h is over 39.8 µM.
As to `COC(=O)c1cncc(C(=O)N2CCN(C3c4ccccc4CCc4ccccc43)CC2)c1` [ZS-338, methyl 5-[4-(2-tricyclo[9.4.0.03,8]pentadeca-1(11),3(8),4,6,12,14-hexaenyl)piperazine-1-carbonyl]pyridine-3-carboxylate], the IC50 in data set [1] (Table 2, read-out: Enzyme IC50) was over 1 µM. The EC50 was 7.07 µM in data set [2] (setting [4]) and over 9.61 µM with HeLa-ACE2 cells. In addition, in data set [3], the half-maximal cytotoxic concentration (CC50) at 24 h was over 39.8 µM.
